According to patent US11400102B2, “Treatment for bacterial infections with salicylic acid analogs” (priority 2019, dated 2022):
“Also recorded” adds a separate entry of the source. Read-outs that look alike come from different tables or passages of the source.

What was measured:
[1] = test system: yersiniabactin production; conditions: FIG. 37
enterobactin production = conditions: FIG. 37
yersiniabactin = assay: Mutasynthesis study: incorporation of variant salicylic acids into yersiniabactin (LC-MS); format: cell-based, uropathogenic E. coli (UTI89ΔybtS)
Experimental: FIG. 11 depicts the experimental protocol for the screening assay. […] a strain of uropathogenic E. coli (UTI89ΔybtS) that cannot produce endogenous salicylic acid but can be chemically complemented with salicylic acid in growth medium. […]+1% casamino acids (CAA) and 20 μM 2′,2′-dipyridyl (DP) were added along with a variety of variant salicylic acids (Table 1) bearing different moieties on carbons 3 to 6. The amount of Ypt in the sample was then quantified using LC-MS.
Walking around the Figure from bottom left: -LC-MS method called neutral loss, where any molecule that loses 187 mass units that are characteristic of yersiniabactin, -different metal species of yersiniabactin can be detected in the supernatant of a UTI89 culture; these have distinct retention times by liquid chromatography; confirm that the molecules contributing to this LC peak are a variant yersiniabactin with a fluorine by the mass.

[2] = test system: yersiniabactin biosynthesis; assay: Culture screen of salicylate analogs for yersiniabactin (Fe-Ybt) in UTI89 supernatant by LC-MS; format: cell-based, uropathogenic E. coli UTI89; conditions: Escherichia coli, read-out: yersiniabactin inhibition
From the text: While investigating in vivo Ybt production in the mouse cystitis model, we observed that a salicylate synthase-deficient uropathogen (UTI89ΔybtS) produces Ybt at near-wild type levels (FIG. 6A). We biochemically connected this phenotype to a uropathogenic ability to scavenge low level urinary salicylate (of presumed dietary origin) (31) as a yersiniabactin biosynthetic substrate. Both human and mouse urine chemically complemented UTI89ΔybtS in this manner, showing that low micromolar salicylate accesses cytoplasmic siderophore biosynthetic enzymes. […] Active compounds could be further divided into those that inhibit the yersiniabactin biosynthetic activity and those that displace the native salicylate substrate, resulting in a variant form of yersiniabactin (vYbt) containing the modified salicylate ring (see fluorinated yersiniabactin in FIG. 6D). The latter process, termed mutasynthesis, has been described for the related pyochelin siderophore system in Pseudomonas (32).
UTI189 cultures were grown overnight in media supplemented with M63+DP+CAA and 50 μM of a salicylic acid analog. Supernatants were then examined for ferric-Ybt and the area of the MS-peak corresponding to that complex was measured. […] In many cases, a 5-fold or greater reduction was observed (FIG. 17).
As described in Example 10, a culture based screen of yersiniabactin biosynthetic inhibitor candidates was undertaken. The screening protocol is described in FIG. 20; E. coli were cultured in 96 well plates at 37° C. in the presence of various yersiniabactin inhibitor candidates. The yersiniabactin secretion in the media was measured using LC-MS using an internal standard (leucine encephalin). Bacterial growth, measured by optical density, was assessed for general toxicity and LC-MS quantification of enterobactin, a related but chemically and biochemically distinct, siderophore in medium at endpoint was measured for off-target activity.

[3] = test system: yersiniabactin production; assay: Yersiniabactin and intermediates (HPT, Esn) in clinical urinary E. coli isolates; format: cell-based; conditions: 50 μM, FIGS. 30-33
Experimental: The following clinical urinary E. coli isolates were chosen since they each secrete yersiniabactin: rUTI2, JMUSB64(490), JMUSB40(518), JMUSB115(530), JMUSB351(544), JMUB470(557), fCAUTI/B2 (sequence type ST131: ZZ13, ZZ15, ZZ16, ZZ18, ZZ22, and non ST131:ZZ23).
Specifically, HPT and escherichelin (Esn) were measured alongside the end product yersiniabactin. In addition, the production of enterobactin was measured as a counterscreen. In FIGS. 30-33, relative amounts of each analyte (HPT, Esn, Yrt) are depicted for each culture exposed to 50 μM of each inhibitor. A graph corresponding to reference UTI89 is reproduced in each figure (upper left).
There was negligible effect on enterobactin biosynthesis as well as less inhibition of biosynthetic precursors to yersiniabactin: HPT and HPTT. […] In this manner, HPTT/escherichelin production by E. coli may protect human hosts.

[4] = test system: yersiniabactin production; assay: Dose response of yersiniabactin production in UTI89 culture; format: cell-based, Uropathogenic E. coli strain UTI89; conditions: for EC50: Escherichia coli
Experimental: Three biological triplicate experiments were completed wherein the % Ybt was measured relative to untreated controls (UTI189Δ189 in 70% ETOH). […] The experimental details describing how Ybt was quantified (using mass spectrometry) and how samples were prepared and treated are described in Chaturvedi, K S et al. Nature chemical biology. 8.8(2012):731-736.
FIGS. 25 and 26 show the effect of 5-methyl salicylic acid on yersiniabactin production in an E. coli culture. In FIG. 25, a dose response curve of yersiniabactin synthesis in the presence of increasing concentrations of 5-methyl-salicylate is shown. Uropathogenic E. coli strain UTI89 were grown in low iron culture with the indicated concentrations of 5-methyl salicylate. Yersiniabactin content of culture supernatants was measured by LC-MS/MS relative to an internal standard. The EC50 was determined to be 0.89±0.10 μM. In FIG. 26 a representative mass spectra is depicted illustrating the presence of yersiniabactin fragments in untreated control (left panel) that are missing in media treated with 5-methyl salicylic acid (right panel).
Uropathogenic bacteria were again grown in low iron culture in the presence of varying concentrations of salicylic acid serivatives having different methylation positions.

[5] = test system: yersiniabactin production (YbtE); assay: Aryl acid adenylating enzyme inhibitors: yersiniabactin production by UTI89; format: cell-based, E. coli UTI89; conditions: AAAE inhibitors
From the text: (§1) Restored yersiniabactin biosynthesis in a salicylate synthase deletion mutant (UTI89ΔybtS) during UTI led us to evaluate the pathway's subsequent biosynthetic enzyme—the aryl acid adenylating enzyme (AAAE) YbtE—as a drug target. UTI89ΔybtE produced no detectable yersiniabactin at 1 day, 1 week or 2 weeks following inoculation and is furthermore less virulent than wild type UTI89, as evidenced by a fewer chronically infected mice, a notable result for a non-conserved gene (FIG. 7A). We evaluated YbtE and its enterobactin pathway equivalent EntE as candidate drug targets using a series of six rationally-designed, non-hydrolyzable nucleoside AAAE inhibitors from the laboratory of Courtney Aldrich (see collaboration letter).
To test whether interference with the downstream adenylating enzyme, YbtE, could also affect yersiniabactin production, a series of YbtE inhibitors were applied to cultures of UTI89 and the Fe-Ybt peak ratio measured (FIG. 19). UT189 was grown overnight in medium supplemented with M63, DP and CAA and 100 μM of the tested compounds. […] Therefore, the salicylic analogs may act to inhibit YbtE, rather than YbtS, in the biosynthetic pathway to reduce overall production of yersiniabactin.

[6] = test system: enterobactin production (EntE); assay: Aryl acid adenylating enzyme inhibitors: enterobactin production by UTI89; format: cell-based, E. coli UTI89; conditions: AAAE inhibitors
From the text: as §1

UPEC urinary growth = assay: Urinary growth assay in the presence of Lcn2; format: cell-based, uropathogenic E. coli; conditions: human urine
From the text: Both neutrophils and epithelial cells produce and secrete the soluble protein Lipocalin 2 (Lcn2) into the urine and bladder lumen. Lcn2 binds a wide range of […] and their ferric complexes, presumably restricting their availability to bacteria (28). We used purified Lcn2, human urine specimens, and our panel of UPEC siderophore mutants to determine whether siderophore systems counteract Lcn2's presumed bacteriostatic activity. […] We further discovered that this phenotype varies between individual urines such that urinary growth is strongly enterobactin-dependent in some (“restrictive” individuals) and less so in others (“permissive” individuals). We have related this to a distinctive urinary metabolomic biomarker profile (29) in these individuals. […]
Restored yersiniabactin biosynthesis in a salicylate synthase deletion mutant (UTI89ΔybtS) during UTI led us to evaluate the pathway's subsequent biosynthetic enzyme—the aryl acid adenylating enzyme (AAAE) YbtE—as a drug target. […] We evaluated YbtE and its enterobactin pathway equivalent EntE as candidate drug targets using a series of six rationally-designed, non-hydrolyzable nucleoside AAAE inhibitors from the laboratory of Courtney Aldrich (see collaboration letter).

[7] = test system: Ybt-deficient (UTI89ΔybtS) culture; assay: Copper toxicity and Ybt cytoprotection in Ybt-deficient culture; conditions: 10 μM cupric sulfate
Experimental: Growth was determined and expressed as total CFU ml^−1. […] For each patient, the difference in urinary and nonurinary strain growth is reported such that a positive value indicates prefential growth by the urinary isolate. In the four patients from whom multiple coincident urinary and nonurinary strains were recovered, the mean growth difference is reported. […] NS, nonsignificant, indicating P>0.05. […] Results are shown as mean±s.d.; n=3; *P<0.05, **P<0.01 and ***P<0.001.

COc1cc(Cc2cnc(N)nc2N)cc(OC)c1OC [TMP, trimethoprim]
yersiniabactin production [1]: markedly decrease | enterobactin production (enterobactin production): not

O=C(O)c1c(O)ccc2ccccc12 [2-hydroxy-1-naphthoic acid]
incorporation into variants of yersiniabactin (yersiniabactin; listed as 2-hydroxy-1-naphoic acid): lack of incorporation | incorporation into variants of yersiniabactin (yersiniabactin; listed as 2-hydroxy-1-nathoic acid): not incorporated

O=C(O)c1c(O)cccc1F [6-fluorosalicylic acid]
inhibition at 50 µM [2]: > 90% | order of yersiniabactin inhibition, most potent to least potent [3]: least potent

Cc1cccc(O)c1C(=O)O [6-methylsalicylic acid]
inhibition at 50 µM [2]: > 90% | yersiniabactin inhibitory activity, dose response ([4]; low iron culture, methylated salicylic acids, FIG. 27): limited activity

Nc1ncnc2c1ncn2[C@@H]1O[C@H](COS(=O)(=O)NC(=O)c2cccc(O)c2O)[C@@H](O)[C@H]1O [DHB-AMS]
yersiniabactin production by UTI89 [5]: completely inhibiting | enterobactin production by UTI89 [6]: completely inhibiting | phenotype in the urinary growth assay (UPEC urinary growth): mimicked an enterobactin biosynthesis mutant phenotype

Cc1ccc(O)c(C(=O)O)c1 [5-methylsalicylic acid]
inhibition at 50 µM [2]: > 90% | EC50 ([4]; read-out: EC50, % Ybt relative to untreated controls): ~1.9 µM | EC50 ([4]; read-out: EIC, inhibits biosynthesis in culture): ~2 µM | EC50 ([4]; UTI89, low iron culture, LC-MS/MS, FIG. 25, read-out: EC50, yersiniabactin content of culture supernatants): 0.89 ± 0.1 µM | order of yersiniabactin inhibition, most potent to least potent [3]: most potent | yersiniabactin expression in a variety of strains [3]: very effective

O=C(O)c1ccc(Cl)cc1O [4-chlorosalicylic acid]
inhibition at 50 µM [2]: > 90%

O=S(=O)([O-])[O-].[Cu+2] [copper, cupric sulfate]
decrease in viability [7]: > 3 log CFU ml^−1

O=C(O)c1cc(F)ccc1O [5-fluorosalicylic acid]
incorporation into variants of yersiniabactin (yersiniabactin): incorporated; also recorded: incorporation

Nc1ncnc2c1ncn2[C@@H]1O[C@H](COS(=O)(=O)NC(=O)c2ccccc2O)[C@@H](O)[C@H]1O [Sal-AMS]
yersiniabactin production by UTI89 [5]: completely inhibiting | enterobactin production by UTI89 [6]: completely inhibiting
